Measured values reported in PubChem BioAssay (NCI).
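Five compound concentrations were applied to cells in 96-well plates for 48 hours; endpoints were derived by simple linear interpolation of the resulting dose-response curve. TGI: total growth inhibition.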

What was measured:
Experiment in all cases: NCI tumour cell line growth inhibition, 48 h
[1] = system: A498 renal
[2] = system: CAKI-1 renal
[3] = system: NCI-H226 lung
[4] = system: NCI-H460 lung
[5] = system: SF-268 CNS
[6] = system: SK-OV-3 ovarian
[7] = system: SN12C renal
[8] = system: TK-10 renal
[9] = system: HS 578T breast
[10] = system: T-47D breast

Row | Compound | TGI [1] | TGI [2] | TGI [3] | TGI [4] | TGI [5] | TGI [6] | TGI [7] | TGI [8] | TGI [9] | TGI [10]
1 | CCCCCCCCCCCCCCCCOCC(CC(F)(F)P(=O)(OCC)OCC)OC(C)=O (stereo unspecified) | 25.8 µM | 30.3 µM | 28.7 µM | 26.3 µM | 27.5 µM | 35 µM | 44.5 µM | 27.3 µM | – | –
2 | CNc1ccc2c(c1)[C@@]1(C)c3ccccc3[C@@H](C2)N1C | 74 µM | > 100 µM | – | 39.9 µM | > 100 µM | > 100 µM | 33 µM | 86.2 µM | > 100 µM | > 100 µM
3 | CC[C@@H]1CC[C@@H]2[C@H](CC[C@]3(C)[C@@H](OS(=O)(=O)c4ccc(C)cc4)CC[C@@H]23)[C@H]1COS(=O)(=O)c1ccc(C)cc1 | > 100 µM | – | > 100 µM | > 100 µM | > 100 µM | – | > 100 µM | > 100 µM | > 100 µM | –
4 | Cc1ccc(NC2=CC(=O)C(NO)c3ccccc32)cc1 (stereo unspecified) | 33.4 µM | 6.73 µM | 49.3 µM | 13.3 µM | 17.7 µM | 46.6 µM | 10.5 µM | 62.7 µM | – | 7.63 µM
5 | O=C1NCc2ccccc2S(=O)(=O)n2cccc21 | – | > 100 µM | > 100 µM | > 100 µM | > 100 µM | > 100 µM | > 100 µM | > 100 µM | > 100 µM | > 100 µM
6 | CC[C@]1(Cc2ccc(OC)c(OC)c2)C=[N+]([O-])O[C@H](OC2CCCC2(c2ccccc2)c2ccccc2)[C@@H]1OC(C)=O (stereo partly specified) | – | – | – | 20.7 µM | 11.4 µM | 50.2 µM | > 39.3 µM | 10.8 µM | 46.5 µM | 12.4 µM
7 | CC(=O)OCC1OC(c2nc3ccccc3s2)=CC(OC(C)=O)C1OC(C)=O (stereo unspecified) | > 100 µM | > 100 µM | > 100 µM | > 100 µM | > 100 µM | – | > 100 µM | > 100 µM | > 100 µM | –
8 | N#Cc1c(-c2ccc([N+](=O)[O-])cc2)c(C#N)c(=O)n(NS(=O)(=O)c2ccccc2)c1-c1ccccc1 | > 100 µM | > 100 µM | > 100 µM | > 100 µM | > 100 µM | > 100 µM | > 100 µM | > 100 µM | > 100 µM | –
9 | Cc1cccc(N(C(=O)Nc2ccc(Cl)c(Cl)c2)C2=NCC(C)S2)c1 (stereo unspecified) | > 100 µM | > 100 µM | – | > 100 µM | > 100 µM | > 100 µM | > 100 µM | 80.3 µM | > 100 µM | > 100 µM
10 | COc1cc2c(cc1OCCCCN1C(=O)c3cccc4cccc(c34)C1=O)N=C[C@@H]1CCCN1C2=O | 13.9 µM | 10.1 µM | 23.5 µM | 14.4 µM | > 100 µM | > 74 µM | 17.7 µM | 6.91 µM | – | 37.1 µM
11 | CN(C)CCNC(=O)c1cc([N+](=O)[O-])cc2c1Oc1ccccc1O2 | > 100 µM | > 100 µM | 50 µM | > 100 µM | > 100 µM | – | > 100 µM | > 100 µM | 99.8 µM | 69.6 µM
12 | O=c1ccn([C@@H]2C[C@@H]2CO)c(=O)[nH]1 | > 100 µM | > 100 µM | > 100 µM | > 100 µM | > 100 µM | – | > 100 µM | > 100 µM | > 100 µM | > 100 µM
13 | CCCCCCC(=O)O[C@H]1CC[C@H]2[C@@H]3CCC4C/C(=N/NC(=O)c5cccc6c(=O)c7ccccc7[nH]c56)C=C(C)[C@]4(C)[C@H]3CC[C@]12C (stereo partly specified) | – | > 25 µM | > 25 µM | – | > 25 µM | > 25 µM | > 25 µM | > 25 µM | > 25 µM | > 25 µM
14 | Cc1ccc(N(C(=O)Nc2ccccc2)C2=NCC(C)S2)cc1C (stereo unspecified) | 47.9 µM | > 10 µM | – | 44.6 µM | 69.8 µM | > 100 µM | 32 µM | 55.2 µM | 77.4 µM | > 100 µM
15 | COc1cc(CO)c(CC(=O)NCCCc2ccccc2)cc1OC | > 100 µM | > 100 µM | > 100 µM | > 100 µM | – | – | > 100 µM | > 100 µM | > 100 µM | > 100 µM
16 | CC(=O)O[C@H]1[C@@H]2OC(=O)[C@@](O)(CC3CCCO3)[C@@H]2CC(=O)[C@](C)(O)CC/C=C(\C)CCC[C@@H]1C (stereo partly specified) | > 100 µM | 44.5 µM | 32.5 µM | > 100 µM | > 100 µM | – | > 100 µM | > 100 µM | > 100 µM | > 100 µM
